Three molecules from ChEMBL document CHEMBL1201862, “PubChem BioAssay data set” (2004) can be followed below.

SMILES strings stand for the structures. Calls of active or inactive are those of the source. A value given as a limit tells only on which side of the number the result lay.

The target of assay [1] is Peroxisome proliferator-activated receptor gamma/Nuclear receptor corepressor 2 (Homo sapiens, UniProt P37231+Q9Y618). Type of assay: functional.
Assay [2] deals with T1, Hexokinase HKDC1 (Homo sapiens, UniProt Q2TB90).
T1 sequence (Q2TB90 whole entry): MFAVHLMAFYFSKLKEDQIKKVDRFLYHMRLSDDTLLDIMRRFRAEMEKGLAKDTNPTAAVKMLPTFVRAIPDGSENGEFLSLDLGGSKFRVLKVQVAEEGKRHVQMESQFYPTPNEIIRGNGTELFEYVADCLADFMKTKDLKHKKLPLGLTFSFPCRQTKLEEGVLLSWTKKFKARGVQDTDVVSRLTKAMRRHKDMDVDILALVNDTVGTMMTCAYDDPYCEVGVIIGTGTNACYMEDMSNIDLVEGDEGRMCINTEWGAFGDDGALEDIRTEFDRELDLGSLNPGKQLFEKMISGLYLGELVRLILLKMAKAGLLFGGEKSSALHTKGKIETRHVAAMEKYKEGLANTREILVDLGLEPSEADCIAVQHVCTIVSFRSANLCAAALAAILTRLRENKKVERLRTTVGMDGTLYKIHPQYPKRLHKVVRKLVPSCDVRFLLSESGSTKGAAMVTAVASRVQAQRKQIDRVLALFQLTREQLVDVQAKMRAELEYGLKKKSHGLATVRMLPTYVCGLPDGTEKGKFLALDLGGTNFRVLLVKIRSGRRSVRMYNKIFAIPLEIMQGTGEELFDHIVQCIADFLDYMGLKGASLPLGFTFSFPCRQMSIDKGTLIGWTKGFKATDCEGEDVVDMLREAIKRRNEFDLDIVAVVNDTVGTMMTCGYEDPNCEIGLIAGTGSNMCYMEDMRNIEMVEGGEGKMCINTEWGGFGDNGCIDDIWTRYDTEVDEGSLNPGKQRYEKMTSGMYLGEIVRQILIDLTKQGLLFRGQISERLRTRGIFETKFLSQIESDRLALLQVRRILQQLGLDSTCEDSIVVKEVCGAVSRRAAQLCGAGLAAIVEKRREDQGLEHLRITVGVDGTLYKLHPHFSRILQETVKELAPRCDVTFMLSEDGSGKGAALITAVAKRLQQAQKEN
Put plainly: inhibition of HKDC1 glucose phosphorylation – biochemical, W721R variant, dose response (AID 504729). The class given is functional.

Assay [3] has as its target T2, Apoptotic protease-activating factor 1 (Homo sapiens, UniProt O14727).
T2 sequence (O14727 whole entry): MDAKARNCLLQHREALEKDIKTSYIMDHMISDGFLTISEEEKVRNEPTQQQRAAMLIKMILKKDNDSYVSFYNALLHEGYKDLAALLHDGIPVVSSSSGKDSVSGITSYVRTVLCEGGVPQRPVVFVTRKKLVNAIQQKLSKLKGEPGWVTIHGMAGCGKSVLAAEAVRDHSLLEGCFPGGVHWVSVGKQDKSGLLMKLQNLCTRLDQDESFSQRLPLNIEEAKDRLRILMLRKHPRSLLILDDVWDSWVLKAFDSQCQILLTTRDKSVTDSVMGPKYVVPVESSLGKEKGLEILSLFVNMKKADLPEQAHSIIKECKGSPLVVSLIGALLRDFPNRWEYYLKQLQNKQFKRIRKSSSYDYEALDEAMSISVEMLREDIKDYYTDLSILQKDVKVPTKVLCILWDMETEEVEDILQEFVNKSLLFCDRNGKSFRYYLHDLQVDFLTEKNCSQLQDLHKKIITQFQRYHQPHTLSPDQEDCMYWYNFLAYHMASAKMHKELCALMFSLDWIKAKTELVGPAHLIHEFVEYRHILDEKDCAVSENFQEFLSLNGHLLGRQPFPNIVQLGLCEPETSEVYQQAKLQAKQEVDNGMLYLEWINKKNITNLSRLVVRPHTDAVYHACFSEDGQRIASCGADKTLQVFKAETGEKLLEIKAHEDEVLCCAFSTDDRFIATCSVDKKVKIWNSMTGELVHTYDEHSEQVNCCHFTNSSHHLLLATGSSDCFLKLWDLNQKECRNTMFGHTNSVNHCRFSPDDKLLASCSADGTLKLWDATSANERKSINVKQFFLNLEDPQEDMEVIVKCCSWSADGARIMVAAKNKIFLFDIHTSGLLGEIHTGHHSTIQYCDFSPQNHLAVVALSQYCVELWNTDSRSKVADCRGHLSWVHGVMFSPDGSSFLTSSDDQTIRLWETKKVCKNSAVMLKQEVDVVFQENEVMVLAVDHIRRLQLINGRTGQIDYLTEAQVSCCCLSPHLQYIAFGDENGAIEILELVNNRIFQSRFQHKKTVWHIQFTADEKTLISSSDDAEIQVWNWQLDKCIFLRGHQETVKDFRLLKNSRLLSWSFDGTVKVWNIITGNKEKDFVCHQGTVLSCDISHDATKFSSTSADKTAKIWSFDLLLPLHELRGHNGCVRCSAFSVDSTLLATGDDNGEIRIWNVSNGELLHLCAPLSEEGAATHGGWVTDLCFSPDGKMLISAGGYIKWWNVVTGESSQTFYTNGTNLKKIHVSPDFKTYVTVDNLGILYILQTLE
The class given is functional.

Assay [4] has as its target Serine/threonine-protein kinase D2 (Homo sapiens, UniProt Q9BZL6). The class given is functional.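 Note: measured against PRKD2 as one member of a kinome-wide kinase profiling panel.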
In assay [5] the target is Serine/threonine-protein kinase D3 (Homo sapiens, UniProt O94806). Type of assay: functional.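 Note: determined within a kinase panel screen, with PRKCN as the panel member.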
In assay [6] the target is MAP kinase-activated protein kinase 5 (Homo sapiens, UniProt Q8IW41). The class given is functional.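 Note: measured as one member of a kinome panel.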
Sequence of MAP kinase-activated protein kinase 5 (Q8IW41 whole entry): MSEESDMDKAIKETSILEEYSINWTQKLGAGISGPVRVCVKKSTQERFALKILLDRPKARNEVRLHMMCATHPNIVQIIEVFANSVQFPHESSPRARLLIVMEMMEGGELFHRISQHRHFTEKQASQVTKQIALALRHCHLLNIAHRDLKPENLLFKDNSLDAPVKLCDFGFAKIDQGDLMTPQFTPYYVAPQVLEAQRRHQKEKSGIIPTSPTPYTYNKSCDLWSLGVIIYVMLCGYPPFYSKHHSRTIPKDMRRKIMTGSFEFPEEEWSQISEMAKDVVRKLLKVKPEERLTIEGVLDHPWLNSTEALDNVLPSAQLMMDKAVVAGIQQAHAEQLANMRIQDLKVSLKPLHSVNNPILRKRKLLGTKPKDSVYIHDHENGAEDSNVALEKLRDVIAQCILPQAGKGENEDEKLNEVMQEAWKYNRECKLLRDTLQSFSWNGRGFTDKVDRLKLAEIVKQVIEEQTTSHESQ
Assay [7] addresses Cell division cycle 7-related protein kinase (Homo sapiens, UniProt O00311). Type of assay: functional.
The target in assay [8] is Mitogen-activated protein kinase 9 (Homo sapiens, UniProt P45984). The class given is functional.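 Note: value from a kinome panel profiling assay, MAPK9 panel entry.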
Sequence of Mitogen-activated protein kinase 9 (P45984 whole entry): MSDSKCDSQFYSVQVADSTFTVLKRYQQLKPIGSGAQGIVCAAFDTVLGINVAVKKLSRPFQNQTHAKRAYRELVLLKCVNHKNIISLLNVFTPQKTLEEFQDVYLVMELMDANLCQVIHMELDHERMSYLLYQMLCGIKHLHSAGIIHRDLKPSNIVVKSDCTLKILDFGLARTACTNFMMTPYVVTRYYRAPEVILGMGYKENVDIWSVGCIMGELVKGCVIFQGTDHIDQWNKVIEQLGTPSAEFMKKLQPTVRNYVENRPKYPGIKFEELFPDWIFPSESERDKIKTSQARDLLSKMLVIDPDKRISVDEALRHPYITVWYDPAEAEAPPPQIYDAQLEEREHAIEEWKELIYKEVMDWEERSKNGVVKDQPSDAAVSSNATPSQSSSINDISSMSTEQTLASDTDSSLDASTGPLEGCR
For assay [9], the target named is Platelet-derived growth factor receptor beta (Homo sapiens, UniProt P09619). The class given is functional.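 Note: value comes from a kinome panel, with PDGFRB tested as one panel member.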
Sequence of Platelet-derived growth factor receptor beta (P09619 whole entry): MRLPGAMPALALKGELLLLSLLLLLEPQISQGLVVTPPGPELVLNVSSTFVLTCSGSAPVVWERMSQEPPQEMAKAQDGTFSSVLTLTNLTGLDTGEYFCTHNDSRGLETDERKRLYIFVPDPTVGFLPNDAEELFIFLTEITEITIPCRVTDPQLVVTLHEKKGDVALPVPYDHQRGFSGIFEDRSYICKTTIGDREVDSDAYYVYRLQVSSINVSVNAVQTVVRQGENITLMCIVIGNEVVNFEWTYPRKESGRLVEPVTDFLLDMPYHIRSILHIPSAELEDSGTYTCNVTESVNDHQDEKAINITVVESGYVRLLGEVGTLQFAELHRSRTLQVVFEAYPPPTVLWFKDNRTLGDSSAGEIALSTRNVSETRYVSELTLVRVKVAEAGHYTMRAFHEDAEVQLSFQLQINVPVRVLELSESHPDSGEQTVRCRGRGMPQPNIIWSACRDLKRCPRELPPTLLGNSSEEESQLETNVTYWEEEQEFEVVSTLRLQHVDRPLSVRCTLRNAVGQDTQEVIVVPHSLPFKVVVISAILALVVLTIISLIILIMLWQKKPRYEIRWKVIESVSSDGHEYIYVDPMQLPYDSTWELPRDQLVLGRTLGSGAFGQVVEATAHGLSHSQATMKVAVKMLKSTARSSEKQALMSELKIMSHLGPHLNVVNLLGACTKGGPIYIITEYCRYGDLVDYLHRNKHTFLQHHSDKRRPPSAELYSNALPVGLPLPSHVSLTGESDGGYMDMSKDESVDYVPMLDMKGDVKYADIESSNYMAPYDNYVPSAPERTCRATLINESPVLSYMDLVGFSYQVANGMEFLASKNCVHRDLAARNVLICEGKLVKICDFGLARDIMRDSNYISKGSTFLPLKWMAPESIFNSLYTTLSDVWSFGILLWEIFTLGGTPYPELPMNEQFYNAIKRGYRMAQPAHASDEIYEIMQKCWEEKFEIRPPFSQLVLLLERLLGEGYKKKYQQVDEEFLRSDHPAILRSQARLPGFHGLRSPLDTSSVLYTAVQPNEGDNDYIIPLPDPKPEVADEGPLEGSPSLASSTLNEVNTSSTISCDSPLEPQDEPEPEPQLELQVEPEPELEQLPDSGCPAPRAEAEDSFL
Assay [10] deals with Vascular endothelial growth factor receptor 2 (Homo sapiens, UniProt P35968). The class given is functional.
Sequence of Vascular endothelial growth factor receptor 2 (P35968 whole entry): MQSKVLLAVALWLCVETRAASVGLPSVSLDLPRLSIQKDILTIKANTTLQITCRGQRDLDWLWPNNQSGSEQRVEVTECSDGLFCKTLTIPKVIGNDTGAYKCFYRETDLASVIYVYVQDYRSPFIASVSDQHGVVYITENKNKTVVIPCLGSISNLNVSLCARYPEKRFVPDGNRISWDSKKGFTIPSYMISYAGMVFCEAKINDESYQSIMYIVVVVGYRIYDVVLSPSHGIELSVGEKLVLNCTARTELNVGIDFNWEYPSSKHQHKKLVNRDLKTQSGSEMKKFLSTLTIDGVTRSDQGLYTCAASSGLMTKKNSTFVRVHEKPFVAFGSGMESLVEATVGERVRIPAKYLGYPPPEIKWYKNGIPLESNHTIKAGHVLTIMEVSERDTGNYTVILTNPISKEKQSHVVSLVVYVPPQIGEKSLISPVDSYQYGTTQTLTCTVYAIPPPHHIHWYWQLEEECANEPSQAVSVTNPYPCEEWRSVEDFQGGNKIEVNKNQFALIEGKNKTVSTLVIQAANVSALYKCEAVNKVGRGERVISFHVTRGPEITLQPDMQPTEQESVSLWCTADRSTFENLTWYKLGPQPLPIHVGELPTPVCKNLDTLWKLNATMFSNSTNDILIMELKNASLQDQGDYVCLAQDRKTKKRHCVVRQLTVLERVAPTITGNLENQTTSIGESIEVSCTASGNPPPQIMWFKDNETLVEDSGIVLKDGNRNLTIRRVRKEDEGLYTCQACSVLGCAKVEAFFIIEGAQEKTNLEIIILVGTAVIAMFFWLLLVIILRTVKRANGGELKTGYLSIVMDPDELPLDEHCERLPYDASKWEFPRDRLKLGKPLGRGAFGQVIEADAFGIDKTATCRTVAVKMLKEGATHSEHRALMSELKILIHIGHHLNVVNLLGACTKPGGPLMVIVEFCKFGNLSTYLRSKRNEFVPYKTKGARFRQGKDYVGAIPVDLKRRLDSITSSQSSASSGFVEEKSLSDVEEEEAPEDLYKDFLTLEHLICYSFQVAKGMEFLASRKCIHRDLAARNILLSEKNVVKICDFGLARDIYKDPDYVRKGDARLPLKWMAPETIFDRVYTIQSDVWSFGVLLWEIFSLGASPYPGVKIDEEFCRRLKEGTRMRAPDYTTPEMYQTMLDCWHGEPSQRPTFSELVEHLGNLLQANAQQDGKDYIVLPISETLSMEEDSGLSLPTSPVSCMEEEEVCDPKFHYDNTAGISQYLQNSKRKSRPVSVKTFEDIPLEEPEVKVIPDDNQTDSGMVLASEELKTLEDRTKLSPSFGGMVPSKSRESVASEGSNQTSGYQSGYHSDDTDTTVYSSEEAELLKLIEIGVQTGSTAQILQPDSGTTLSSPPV
In assay [11] the target is G protein-coupled receptor kinase 5 (Homo sapiens, UniProt P34947). In words: Navigating the Kinome. Panel member name: GPRK5. The class given is functional.
In assay [12] the target is Insulin-like growth factor 1 receptor (Homo sapiens, UniProt P08069). In words: Navigating the Kinome. Panel member name: IGF1R. Type of assay: functional.
For assay [13], the target named is cAMP-dependent protein kinase catalytic subunit PRKX (Homo sapiens, UniProt P51817). Type of assay: functional.
Sequence of cAMP-dependent protein kinase catalytic subunit PRKX (P51817 whole entry): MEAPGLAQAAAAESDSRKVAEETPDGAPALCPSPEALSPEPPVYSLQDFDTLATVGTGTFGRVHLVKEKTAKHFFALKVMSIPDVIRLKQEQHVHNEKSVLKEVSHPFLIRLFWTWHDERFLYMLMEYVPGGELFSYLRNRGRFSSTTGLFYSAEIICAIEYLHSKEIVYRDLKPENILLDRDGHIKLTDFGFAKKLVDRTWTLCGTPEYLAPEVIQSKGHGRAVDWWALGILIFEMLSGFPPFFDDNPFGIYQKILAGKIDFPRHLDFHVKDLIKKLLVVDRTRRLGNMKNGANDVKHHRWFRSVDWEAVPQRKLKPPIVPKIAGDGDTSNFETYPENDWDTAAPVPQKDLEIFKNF
The target of assay [14] is Fibroblast growth factor receptor 3 (Homo sapiens, UniProt P22607). The class given is functional.
Assay [15] concerns Streptococcus. In words: GAS UMAA2166 growth inhibition – luminescence, BacTiterGlo, counter-screen for streptokinase expression inhibitor project, dose response (AID 1915).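 Note: potency for reduction of bacterial viability or growth.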 Type of assay: functional, organism-based.
The nature of assay [16]: Reduced DLD-1 viability, concentration-response, CellTiter-Glo luminescence (AID 1117352). The class given is functional.

Sequence of Serine/threonine-protein kinase D2 (Q9BZL6 whole entry): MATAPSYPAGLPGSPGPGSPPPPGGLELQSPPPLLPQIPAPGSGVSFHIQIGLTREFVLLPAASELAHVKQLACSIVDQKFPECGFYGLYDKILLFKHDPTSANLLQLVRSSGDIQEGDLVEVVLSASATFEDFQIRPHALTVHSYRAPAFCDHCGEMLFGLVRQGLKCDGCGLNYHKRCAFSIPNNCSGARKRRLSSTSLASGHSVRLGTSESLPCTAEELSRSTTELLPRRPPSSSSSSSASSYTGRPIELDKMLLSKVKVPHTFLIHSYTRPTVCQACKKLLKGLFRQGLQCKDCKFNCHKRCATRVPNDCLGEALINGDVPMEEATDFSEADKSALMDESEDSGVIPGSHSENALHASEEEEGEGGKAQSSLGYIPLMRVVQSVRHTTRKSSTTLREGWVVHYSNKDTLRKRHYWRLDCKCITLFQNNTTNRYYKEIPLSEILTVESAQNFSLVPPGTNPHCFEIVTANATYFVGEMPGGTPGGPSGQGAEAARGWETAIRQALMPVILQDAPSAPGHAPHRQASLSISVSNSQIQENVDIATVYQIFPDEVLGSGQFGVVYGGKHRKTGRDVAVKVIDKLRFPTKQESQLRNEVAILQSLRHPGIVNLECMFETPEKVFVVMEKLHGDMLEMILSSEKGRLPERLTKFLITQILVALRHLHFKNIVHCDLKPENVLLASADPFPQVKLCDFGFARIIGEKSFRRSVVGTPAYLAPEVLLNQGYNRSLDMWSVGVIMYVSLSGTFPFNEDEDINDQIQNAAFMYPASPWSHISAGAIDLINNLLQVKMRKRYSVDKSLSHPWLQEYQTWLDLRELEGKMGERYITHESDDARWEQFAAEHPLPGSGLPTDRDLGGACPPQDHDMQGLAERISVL

With `O=C1C=C(N2CCOCC2)c2ccccc2C1=O`, the figures for the IC50 in [1], in [2] and in assay [3] were > 39.8 µM (not active), 1.02 µM (active) and 1.27 µM (active), respectively.

Take `N#Cc1ccc2[nH]c(O)c(-c3ccc(CN4CCOCC4)cn3)c2c1` [AZD-1080]: the Ki in [4] was 7.94 µM (active); in assay [5] it was > 5.01 µM (inactive); in assay [6] it was > 1.58 µM (inactive); in assay [7] it was > 1.26 µM (inactive); in assay [8] it was > 3.98 µM (inactive); in assay [9] it was > 2 µM (inactive). In addition, the Ki in [10] was > 2.51 µM (inactive); in assay [11] it was > 3.98 µM (inactive); in assay [12] it was > 2.51 µM (inactive); in assay [13], > 2.51 µM (inactive); in assay [14], > 2 µM (inactive).

For the molecule `CCc1oc2ccccc2c1C(=O)c1cc(Br)c(O)c(Br)c1` [BENZBROMARONE], the EC50 in assay [15] was > 150 µM (not active). Also, the IC50 in assay [16] is 0.268 µM (active).
